Test results as given in patent publication US20230085307A1, “PYRIDAZINONE COMPOUND AND HERBICIDE” (NISSAN CHEMICAL CORPORATION, priority 2019, published 2023).

How the values were obtained:
southern crabgrass [1] = experiment: Test Example 4: herbicidal effect by soil treatment (Table 19, symbol F); assay type: in vivo, southern crabgrass (Digitaria ciliaris); conditions: AAH 320 g/ha
Procedure, shortened: (§1)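 In this soil treatment, the formulated compound reached the seeds only through the soil: seeds were buried about 1.5 cm deep in sterilized diluvial soil, then the diluted emulsion was sprayed over the surface. After three weeks at 25° C. to 30° C. in a greenhouse, effects were graded on criteria from an earlier test.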

velvetleaf [2] = experiment: Test Example 4: herbicidal effect by soil treatment (Table 19, symbol M); assay type: in vivo, velvetleaf (Abutilon theophrasti); conditions: AAH 320 g/ha
Procedure, shortened: as §1

chickweed [3] = experiment: Test Example 4: herbicidal effect by soil treatment (Table 19, symbol P); assay type: in vivo, common chickweed (Stellaria media); conditions: AAH 320 g/ha
Procedure, shortened: as §1

lambsquarters [4] = experiment: Test Example 4: herbicidal effect by soil treatment (Table 19, symbol O); assay type: in vivo, lambsquarters (Chenopodium album); conditions: AAH 320 g/ha
Procedure, shortened: as §1

redroot pigweed [5] = experiment: Test Example 5: herbicidal effect by foliage application, plastic box (Table 20, symbol N); assay type: in vivo, redroot pigweed (Amaranthus retroflexus); conditions: foliage application, AAH 320 g/ha, three weeks after application
Procedure, shortened: (§2)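 Plants were sown into sterilized diluvial soil under about 1.5 cm cover and kept in a greenhouse at 25° C. to 30° C. Fourteen days on, foliage received an even spray of the diluted emulsion. Herbicidal or crop effect was judged three weeks afterwards.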

persian speedwell [6] = experiment: Test Example 5: herbicidal effect by foliage application, plastic box (Table 20, symbol R); assay type: in vivo, Persian speedwell (Veronica persica); conditions: foliage application, AAH 320 g/ha, three weeks after application
Procedure, shortened: as §2

chickweed [7] = experiment: Test Example 5: herbicidal effect by foliage application, plastic box (Table 20, symbol P); assay type: in vivo, common chickweed (Stellaria media); conditions: foliage application, AAH 320 g/ha, three weeks after application
Procedure, shortened: as §2

windgrass [8] = experiment: Test Example 5: herbicidal effect by foliage application, plastic box (Table 20, symbol L); assay type: in vivo, windgrass (Apera spica-venti); conditions: foliage application, AAH 320 g/ha, three weeks after application
Procedure, shortened: as §2

Italian ryegrass [9] = experiment: Test Example 5: herbicidal effect by foliage application, plastic box (Table 20, symbol K); assay type: in vivo, Italian ryegrass (Lolium multiflorum); conditions: foliage application, AAH 320 g/ha, three weeks after application
Procedure, shortened: as §2

barnyard grass [10] = experiment: Test Example 5: herbicidal effect by foliage application, plastic box (Table 20, symbol H); assay type: in vivo, barnyard grass (Echinochloa crus-galli); conditions: foliage application, AAH 320 g/ha, three weeks after application
Procedure, shortened: as §2

barnyard grass [11] = experiment: Test Example 4: herbicidal effect by soil treatment (Table 19, symbol H); assay type: in vivo, barnyard grass (Echinochloa crus-galli); conditions: AAH 320 g/ha
Procedure, shortened: as §1

Italian ryegrass [12] = experiment: Test Example 4: herbicidal effect by soil treatment (Table 19, symbol K); assay type: in vivo, Italian ryegrass (Lolium multiflorum); conditions: AAH 320 g/ha
Procedure, shortened: as §1

wild oat [13] = experiment: Test Example 5: herbicidal effect by foliage application, plastic box (Table 20, symbol I); assay type: in vivo, wild oat (Avena fatua); conditions: foliage application, AAH 320 g/ha, three weeks after application
Procedure, shortened: as §2

velvetleaf [14] = experiment: Test Example 5: herbicidal effect by foliage application, plastic box (Table 20, symbol M); assay type: in vivo, velvetleaf (Abutilon theophrasti); conditions: foliage application, AAH 320 g/ha, three weeks after application
Procedure, shortened: as §2

blackgrass [15] = experiment: Test Example 4: herbicidal effect by soil treatment (Table 19, symbol J); assay type: in vivo, blackgrass (Alopecurus myosuroides); conditions: AAH 320 g/ha
Procedure, shortened: as §1

southern crabgrass [16] = experiment: Test Example 5: herbicidal effect by foliage application, plastic box (Table 20, symbol F); assay type: in vivo, southern crabgrass (Digitaria ciliaris); conditions: foliage application, AAH 320 g/ha, three weeks after application
Procedure, shortened: as §2

redroot pigweed [17] = experiment: Test Example 4: herbicidal effect by soil treatment (Table 19, symbol N); assay type: in vivo, redroot pigweed (Amaranthus retroflexus); conditions: AAH 320 g/ha
Procedure, shortened: as §1

wild oat [18] = experiment: Test Example 4: herbicidal effect by soil treatment (Table 19, symbol I); assay type: in vivo, wild oat (Avena fatua); conditions: AAH 320 g/ha
Procedure, shortened: as §1

blackgrass [19] = experiment: Test Example 5: herbicidal effect by foliage application, plastic box (Table 20, symbol J); assay type: in vivo, blackgrass (Alopecurus myosuroides); conditions: foliage application, AAH 320 g/ha, three weeks after application
Procedure, shortened: as §2

green foxtail [20] = experiment: Test Example 4: herbicidal effect by soil treatment (Table 19, symbol G); assay type: in vivo, green foxtail (Setaria viridis); conditions: AAH 320 g/ha
Procedure, shortened: as §1

lambsquarters [21] = experiment: Test Example 5: herbicidal effect by foliage application, plastic box (Table 20, symbol O); assay type: in vivo, lambsquarters (Chenopodium album); conditions: foliage application, AAH 320 g/ha, three weeks after application
Procedure, shortened: as §2

windgrass [22] = experiment: Test Example 4: herbicidal effect by soil treatment (Table 19, symbol L); assay type: in vivo, windgrass (Apera spica-venti); conditions: AAH 320 g/ha
Procedure, shortened: as §1

green foxtail [23] = experiment: Test Example 5: herbicidal effect by foliage application, plastic box (Table 20, symbol G); assay type: in vivo, green foxtail (Setaria viridis); conditions: foliage application, AAH 320 g/ha, three weeks after application
Procedure, shortened: as §2

persian speedwell [24] = experiment: Test Example 4: herbicidal effect by soil treatment (Table 19, symbol R); assay type: in vivo, Persian speedwell (Veronica persica); conditions: AAH 320 g/ha
Procedure, shortened: as §1

Compound: Cc1nn(C)c(=O)c(-c2c(-c3ccc(OS(=O)(=O)C(F)(F)F)cc3)sc3ccccc23)c1O [1-147]
- F: southern crabgrass, herbicidal effect rating (southern crabgrass [1]): 0 (Herbicidal rate of 5% or less (almost no effect))
- M: velvetleaf, herbicidal effect rating (velvetleaf [2]): 0 (Herbicidal rate of 5% or less (almost no effect))
- P: chickweed, herbicidal effect rating (chickweed [3]): 5 (Herbicidal rate of 90% or more (almost completely withered))
- O: lambsquarters, herbicidal effect rating (lambsquarters [4]): 3 (Herbicidal rate of 40% or more and less than 70%)
- N: redroot pigweed, herbicidal effect (redroot pigweed [5]): 0 (Herbicidal rate of 5% or less (almost no effect))
- R: persian speedwell, herbicidal effect (persian speedwell [6]): 5 (Herbicidal rate of 90% or more (almost completely withered))
- P: chickweed, herbicidal effect (chickweed [7]): 5 (Herbicidal rate of 90% or more (almost completely withered))
- L: windgrass, herbicidal effect (windgrass [8]): 0 (Herbicidal rate of 5% or less (almost no effect))
- K: Italian ryegrass, herbicidal effect (Italian ryegrass [9]): 0 (Herbicidal rate of 5% or less (almost no effect))
- H: barnyard grass, herbicidal effect (barnyard grass [10]): 0 (Herbicidal rate of 5% or less (almost no effect))
- H: barnyard grass, herbicidal effect rating (barnyard grass [11]): 0 (Herbicidal rate of 5% or less (almost no effect))
- K: Italian ryegrass, herbicidal effect rating (Italian ryegrass [12]): 0 (Herbicidal rate of 5% or less (almost no effect))
- I: wild oat, herbicidal effect (wild oat [13]): 0 (Herbicidal rate of 5% or less (almost no effect))
- M: velvetleaf, herbicidal effect (velvetleaf [14]): 1 (Herbicidal rate of 5% or more and less than 20%)
- J: blackgrass, herbicidal effect rating (blackgrass [15]): 0 (Herbicidal rate of 5% or less (almost no effect))
- F: southern crabgrass, herbicidal effect (southern crabgrass [16]): 0 (Herbicidal rate of 5% or less (almost no effect))
- N: redroot pigweed, herbicidal effect rating (redroot pigweed [17]): 2 (Herbicidal rate of 20% or more and less than 40%)
- I: wild oat, herbicidal effect rating (wild oat [18]): 0 (Herbicidal rate of 5% or less (almost no effect))
- J: blackgrass, herbicidal effect (blackgrass [19]): 0 (Herbicidal rate of 5% or less (almost no effect))
- G: green foxtail, herbicidal effect rating (green foxtail [20]): 0 (Herbicidal rate of 5% or less (almost no effect))
- O: lambsquarters, herbicidal effect (lambsquarters [21]): 2 (Herbicidal rate of 20% or more and less than 40%)
- L: windgrass, herbicidal effect rating (windgrass [22]): 0 (Herbicidal rate of 5% or less (almost no effect))
- G: green foxtail, herbicidal effect (green foxtail [23]): 0 (Herbicidal rate of 5% or less (almost no effect))
- R: persian speedwell, herbicidal effect rating (persian speedwell [24]): 5 (Herbicidal rate of 90% or more (almost completely withered))
